How the values were obtained:
Format in all cases: ADME
Cytochrome P450 3A4 [1] = target: T1, Cytochrome P450 3A4 (Homo sapiens, UniProt P08684); assay: Activity of human recombinant CYP3A4 assessed as conversion of testosterone to 6-beta-hydroxytestesterone at 25 uM after 60 mins in presence of 25 uM epipodophyllotoxin; settings: recombinant enzyme, 1 h
Cytochrome P450 3A4 [2] = target: T1, Cytochrome P450 3A4; assay: Ratio of Vmax to Km for human recombinant CYP3A4; settings: recombinant enzyme
Cytochrome P450 3A4 [3] = target: T1, Cytochrome P450 3A4; assay: Activity of human recombinant CYP3A4 assessed as conversion of testosterone to 6-beta-hydroxytestesterone at 25 uM after 60 mins in presence of 25 uM Miconazole; settings: recombinant enzyme, 1 h
Cytochrome P450 3A4 [4] = target: T1, Cytochrome P450 3A4; assay: Activity of human recombinant CYP3A4 co-expressed in Escherichia coli with human p450 NADPH reductase assessed as conversion of deoxypodophyllotoxin to epipodophyllotoxin; settings: recombinant enzyme

T1 sequence (P08684 whole entry): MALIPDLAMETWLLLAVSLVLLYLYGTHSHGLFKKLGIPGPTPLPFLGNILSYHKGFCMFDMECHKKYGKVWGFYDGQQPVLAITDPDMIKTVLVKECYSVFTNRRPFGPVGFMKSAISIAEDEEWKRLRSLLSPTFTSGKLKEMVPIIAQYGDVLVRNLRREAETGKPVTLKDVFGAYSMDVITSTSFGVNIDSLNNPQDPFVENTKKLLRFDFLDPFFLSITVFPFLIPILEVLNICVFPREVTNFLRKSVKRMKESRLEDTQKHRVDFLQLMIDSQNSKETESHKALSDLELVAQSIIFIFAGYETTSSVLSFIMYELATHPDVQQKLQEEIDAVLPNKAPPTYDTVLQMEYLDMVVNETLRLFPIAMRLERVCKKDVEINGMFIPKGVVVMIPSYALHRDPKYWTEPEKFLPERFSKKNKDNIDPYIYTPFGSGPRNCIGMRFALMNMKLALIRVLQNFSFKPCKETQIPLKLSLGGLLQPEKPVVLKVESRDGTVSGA

C[C@]12CC[C@H]3[C@@H](CCC4=CC(=O)CC[C@@]43C)[C@@H]1CC[C@@H]2O [TESTOSTERONE]
inhibition (INH) (Cytochrome P450 3A4 [1]): 11.46%
Vmax/Km (Cytochrome P450 3A4 [2]): 2.5e+06 M⁻¹ s⁻¹
inhibition (INH) (Cytochrome P450 3A4 [3]): 4.38%
Km (Cytochrome P450 3A4 [4]): 20.5 µM
Vmax (Cytochrome P450 3A4 [4]): 30.3 nmol/min

— ChEMBL document CHEMBL1156700, “Metabolic stereoselectivity of cytochrome P450 3A4 towards deoxypodophyllotoxin: In silico predictions and experimental validation” (Eur J Med Chem, 2008)
